In patent publication US20100222337A1, “FUNGICIDAL COMPOSITION CONTAINING CARBOXYLIC ACID AMIDE DERIVATIVE” (Ishihara Sangyo Kaisha, Ltd., priority 2005, published 2010):

Columns and labels:
Botrytis cinerea = test: Test on preventive effect against kidney bean gray mold; format: in vivo; settings: 500 ppm, spray on kidney bean (Taisyou Kintoki), 3 to 4 days after inoculation
sheath blight of rice = settings: as disclosed in Patent Document 2 (JP-A-2005-179234); cited from earlier work
Erysiphe graminis = settings: 500 ppm, spray on wheat (Norin-61-go) at 1.5-leaf stage, preventive, 6 to 7 days after inoculation
Description: In each test, the controlling index was determined on the basis of the following standards:
Wheat (cultivar: Norin-61-go) was cultivated in a plastic pot having a diameter of 7.5 cm, and when it reached 1.5-leaf stage, 10 ml of a chemical solution having the carboxylic acid amide derivative of the formula (I) or a salt thereof adjusted to a prescribed concentration, was applied by a spray gun. After the chemical solution dried (the same day as the application), conidia of Erysiphe graminis were dusted and inoculated and maintained in a constant temperature chamber at 20° C. From 6 to 7 days after the inoculation, the area of sporulation was investigated, and the controlling index was determined in accordance with the above evaluation standards.

| Compound | melting point [°C] | controlling index (length of lesions) (Botrytis cinerea) | effect against sheath blight of rice (sheath blight of rice) | controlling index (area of sporulation) (Erysiphe graminis) |
| --- | --- | --- | --- | --- |
| Cc1c(C(=O)C(C)(C)NC(=O)c2ncccc2C(F)(F)F)ccc2c1OC(F)(F)O2 [compound No. 2-1, N-[2-[(2,2-difluoro-4-methyl-1,3-benzodioxolan-5-yl)carbonyl]-2-propyl]-3-trifluoromethyl-2-pyridinecarboxamide] | 130 to 134 |  |  |  |
| CC(C)(NC(=O)c1ccncc1F)C(=O)c1ccc(-c2ccc(OC(F)(F)F)cc2)cc1 [Comparative Compound 1, 3-fluoro-N-(2-methyl-1-oxo-1-(4′-(trifluoromethoxy)biphenyl-4-yl)propan-2-yl)isonicotinamide] |  | 1 (Length of lesions, number of lesions or area of sporulation is at least 70% of non-treated plot) | effective | 1 (Length of lesions, number of lesions or area of sporulation is at least 70% of non-treated plot) |
